Source: the supplement of paper PMC6045584
± gives the standard deviation of the averaged measurements.

Tests used:
AFIMOXIFENE = compound: CC/C(=C(\c1ccc(O)cc1)c1ccc(OCCN(C)C)cc1)c1ccccc1 [AFIMOXIFENE]; assay: surviving fraction relative to DMSO-only wells; higher = less growth inhibition; settings: exposure time: 5 days
How it was run: (§1)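 For each tumour cell line, log-phase cells were put into 384-well plates at 250–500 cells per well, then after 24 hours exposed continuously for five days to inhibitors at 0.5, 1, 5, 10, 50, 100, 500 and 1000 nM. Viability was assessed by CellTiter-Glo luminescence, with surviving fraction expressed relative to the median of DMSO-only wells. Lines were screened three times and retained only if replicate Pearson r exceeded 0.7 and median Z' exceeded 0.3.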

VORINOSTAT = compound: O=C(CCCCCCC(=O)Nc1ccccc1)NO [VORINOSTAT]; assay: as above; settings: exposure time: 5 days
How it was run: as §1

Test System | surviving fraction (AFIMOXIFENE; 0.5 nM) | surviving fraction (AFIMOXIFENE; 1 nM) | surviving fraction (AFIMOXIFENE; 5 nM) | surviving fraction (AFIMOXIFENE; 10 nM) | surviving fraction (AFIMOXIFENE; 50 nM) | surviving fraction (AFIMOXIFENE; 100 nM) | surviving fraction (AFIMOXIFENE; 500 nM) | surviving fraction (AFIMOXIFENE; 1000 nM) | surviving fraction (VORINOSTAT; 0.5 nM) | surviving fraction (VORINOSTAT; 1 nM) | surviving fraction (VORINOSTAT; 5 nM) | surviving fraction (VORINOSTAT; 10 nM) | surviving fraction (VORINOSTAT; 50 nM) | surviving fraction (VORINOSTAT; 100 nM) | surviving fraction (VORINOSTAT; 500 nM) | surviving fraction (VORINOSTAT; 1000 nM)
SYO1 SYNOVIAL | 0.993 ± 0.023 | 1.01 ± 0.04 | 1.04 ± 0.013 | 1.03 ± 0.072 | 0.954 ± 0.035 | 0.982 ± 0.028 | 0.939 ± 0.023 | 1.04 ± 0.087 | 0.942 ± 0.068 | 0.895 ± 0.083 | 0.945 ± 0.055 | 0.836 ± 0.025 | 1.03 ± 0.088 | 1.057 ± 0.0096 | 0.563 ± 0.022 | 0.222 ± 0.012
VCAP PROSTATE | 0.993 ± 0.093 | 1.06 ± 0.1 | 1.07 ± 0.065 | 1.11 ± 0.098 | 1.12 ± 0.11 | 1.09 ± 0.019 | 1.07 ± 0.17 | 0.941 ± 0.075 | 1.09 ± 0.082 | 1.12 ± 0.054 | 1.15 ± 0.015 | 1.17 ± 0.11 | 1.16 ± 0.11 | 0.994 ± 0.022 | 0.449 ± 0.017 | 0.261 ± 0.04
HELA CERVIX | 1.05 ± 0.063 | 1.02 ± 0.11 | 1.08 ± 0.061 | 1 ± 0.055 | 1.1 ± 0.071 | 1.11 ± 0.065 | 1.17 ± 0.058 | 1.08 ± 0.12 | 0.955 ± 0.049 | 0.942 ± 0.066 | 0.972 ± 0.042 | 0.939 ± 0.07 | 1.07 ± 0.057 | 1.06 ± 0.064 | 1.11 ± 0.037 | 1.01 ± 0.092
SAOS2 BONE | 1.18 ± 0.064 | 1.14 ± 0.068 | 1.23 ± 0.051 | 1.18 ± 0.052 | 1.21 ± 0.034 | 1.2 ± 0.16 | 1.12 ± 0.14 | 0.985 ± 0.042 | 1.09 ± 0.027 | 1.07 ± 0.047 | 1.09 ± 0.07 | 0.997 ± 0.088 | 1.24 ± 0.021 | 1.06 ± 0.048 | 0.91 ± 0.053 | 0.73 ± 0.017
HCC1395 BREAST | 1.26 ± 0.13 | 1.15 ± 0.057 | 1.33 ± 0.13 | 1.25 ± 0.048 | 1.19 ± 0.13 | 1.12 ± 0.12 | 1.04 ± 0.11 | 1.09 ± 0.16 | 1.1 ± 0.23 | 1.05 ± 0.16 | 1.31 ± 0.066 | 1.11 ± 0.11 | 1.25 ± 0.11 | 1.21 ± 0.042 | 1.03 ± 0.11 | 0.94 ± 0.1
HCC202 BREAST | 1.15 ± 0.4 | 1.2 ± 0.061 | 1.53 ± 0.67 | 1.19 ± 0.14 | 1.03 ± 0.083 | 1.17 ± 0.17 | 0.881 ± 0.29 | 1.13 ± 0.51 | 1.19 ± 0.26 | 1.12 ± 0.13 | 1.31 ± 0.11 | 1.12 ± 0.12 | 0.808 ± 0.14 | 0.777 ± 0.34 | 0.476 ± 0.12 | 0.295 ± 0.049
MDAMB361 BREAST | 0.875 ± 0.038 | 0.832 ± 0.096 | 0.756 ± 0.061 | 0.815 ± 0.11 | 0.854 ± 0.081 | 0.856 ± 0.037 | 1.09 ± 0.078 | 0.782 ± 0.013 | 0.809 ± 0.028 | 0.871 ± 0.097 | 0.796 ± 0.019 | 0.825 ± 0.037 | 0.783 ± 0.096 | 0.843 ± 0.077 | 0.596 ± 0.014 | 0.378 ± 0.015
COLO320DM LARGE INTESTINE | 1.14 ± 0.071 | 1.05 ± 0.08 | 1.05 ± 0.011 | 1.11 ± 0.045 | 1.17 ± 0.079 | 1.18 ± 0.056 | 1.16 ± 0.05 | 1.13 ± 0.018 | 1.1 ± 0.13 | 1.18 ± 0.15 | 1.12 ± 0.086 | 1.04 ± 0.049 | 1.22 ± 0.17 | 1.07 ± 0.14 | 0.577 ± 0.041 | 0.177 ± 0.0091
SCC003 HEADNECK | 1.127 ± 0.0056 | 1.14 ± 0.015 | 1.1 ± 0.091 | 1.07 ± 0.057 | 1.13 ± 0.055 | 1.1 ± 0.091 | 1.151 ± 0.0068 | 1.11 ± 0.042 | 1 ± 0.086 | 1.01 ± 0.15 | 1.02 ± 0.1 | 1.01 ± 0.093 | 1.09 ± 0.067 | 1.12 ± 0.091 | 1.14 ± 0.12 | 0.847 ± 0.16
MG63 BONE | 1.06 ± 0.04 | 1.04 ± 0.027 | 1.1 ± 0.048 | 1.07 ± 0.051 | 1.09 ± 0.05 | 1.05 ± 0.048 | 1.02 ± 0.036 | 1.02 ± 0.049 | 1.03 ± 0.021 | 0.98033 ± 0.00058 | 1.058 ± 0.0097 | 1.02 ± 0.038 | 1.081 ± 0.0029 | 1.121 ± 0.011 | 1.02 ± 0.019 | 0.8407 ± 0.0078
SG43 HEADNECK | 0.934 ± 0.082 | 1.06 ± 0.26 | 1.14 ± 0.34 | 0.825 ± 0.14 | 0.903 ± 0.016 | 1 ± 0.14 | 1.16 ± 0.12 | 0.927 ± 0.13 | 1.08 ± 0.16 | 1.13 ± 0.12 | 0.836 ± 0.23 | 1.03 ± 0.21 | 0.949 ± 0.15 | 1.1 ± 0.033 | 1.04 ± 0.28 | 0.729 ± 0.21
MDAMB134 BREAST | 1.32 ± 0.15 | 1.06 ± 0.073 | 1.05 ± 0.011 | 0.975 ± 0.088 | 1.16 ± 0.074 | 0.932 ± 0.037 | 0.887 ± 0.095 | 0.908 ± 0.089 | 0.938 ± 0.037 | 0.937 ± 0.17 | 0.987 ± 0.0099 | 0.857 ± 0.011 | 0.935 ± 0.026 | 0.949 ± 0.16 | 0.688 ± 0.04 | 0.781 ± 0.025
SG27 HEADNECK | 1.09 ± 0.16 | 1.06 ± 0.14 | 1.05 ± 0.023 | 1.02 ± 0.059 | 1.16 ± 0.063 | 1 ± 0.23 | 1.21 ± 0.11 | 1.1 ± 0.078 | 1.22 ± 0.15 | 1.05 ± 0.089 | 1.01 ± 0.13 | 1.08 ± 0.048 | 0.989 ± 0.1 | 0.955 ± 0.088 | 0.824 ± 0.097 | 0.755 ± 0.048
143B BONE |  | 1.09 ± 0.041 | 1.15 ± 0.11 | 1.1 ± 0.036 | 1.12 ± 0.035 | 1.1 ± 0.033 | 1.14 ± 0.12 | 1.12 ± 0.15 | 1.01 ± 0.0028 | 1.02 ± 0.011 | 1.053 ± 0.0014 | 1.01 ± 0.031 | 1.01 ± 0.03 | 1.02 ± 0.042 | 0.858 ± 0.11 | 0.835 ± 0.026
NOS1 BONE | 1.05 ± 0.094 | 1.16 ± 0.28 | 1.18 ± 0.08 | 1.27 ± 0.12 | 1.4 ± 0.15 | 1.21 ± 0.076 | 1.08 ± 0.072 | 0.973 ± 0.19 | 1.01 ± 0.05 | 0.982 ± 0.17 | 1.04 ± 0.021 | 1.03 ± 0.056 | 1.14 ± 0.15 | 1.07 ± 0.091 | 0.713 ± 0.089 | 0.284 ± 0.0091
LNCAP PROSTATE | 1.08 ± 0.041 | 0.942 ± 0.1 | 1.04 ± 0.063 | 1 ± 0.098 | 1.06 ± 0.061 | 1.04 ± 0.087 | 1.02 ± 0.08 | 0.983 ± 0.088 | 1.11 ± 0.14 | 0.952 ± 0.22 | 0.842 ± 0.19 | 0.861 ± 0.053 | 0.904 ± 0.15 | 0.784 ± 0.042 | 0.361 ± 0.055 | 0.159 ± 0.016
JURKAT HAEMATOPOIETIC AND LYMPHOID TISSUE | 1.06 ± 0.023 | 1.03 ± 0.026 | 1.03 ± 0.021 | 1.04 ± 0.015 | 0.953 ± 0.024 | 0.935 ± 0.061 | 0.991 ± 0.011 | 1.03 ± 0.025 | 1.1 ± 0.026 | 1.105 ± 0.01 | 1.09 ± 0.032 | 1.05 ± 0.02 | 1.04 ± 0.013 | 1.01 ± 0.023 | 0.696 ± 0.037 | 0.039 ± 0.001
CHLA90 AUTONOMIC GANGLIA | 0.969 ± 0.013 | 0.966 ± 0.061 | 0.985 ± 0.077 | 0.98 ± 0.039 |  | 1.16 ± 0.078 | 1.09 ± 0.088 | 1.05 ± 0.11 | 0.971 ± 0.026 | 1.08 ± 0.046 | 0.976 ± 0.013 | 0.839 ± 0.047 | 1.02 ± 0.052 | 0.982 ± 0.063 | 0.977 ± 0.022 | 0.844 ± 0.053
MDAMB468 BREAST | 1.01 ± 0.021 | 0.991 ± 0.034 | 1.06 ± 0.054 | 1.09 ± 0.02 | 1.12 ± 0.077 | 1.21 ± 0.046 | 1.14 ± 0.024 | 1.05 ± 0.0095 | 0.891 ± 0.052 | 0.951 ± 0.03 | 1 ± 0.044 | 0.978 ± 0.023 | 1.12 ± 0.061 | 1.133 ± 0.007 | 0.818 ± 0.036 | 0.469 ± 0.007
HSSYII SYNOVIAL | 0.993 ± 0.029 | 1.04 ± 0.021 | 0.989 ± 0.075 | 1.02 ± 0.055 | 1.01 ± 0.035 | 0.993 ± 0.046 | 0.921 ± 0.07 | 0.968 ± 0.05 | 0.913 ± 0.023 | 0.87 ± 0.025 | 0.927 ± 0.044 | 0.873 ± 0.016 | 1.06 ± 0.25 | 0.858 ± 0.066 | 0.436 ± 0.012 | 0.201 ± 0.011
H23 LUNG | 1.06 ± 0.045 | 1.05 ± 0.026 | 1.07 ± 0.05 | 1.03 ± 0.016 | 1.07 ± 0.023 | 1.09 ± 0.094 | 1.07 ± 0.08 | 1.06 ± 0.11 | 1.04 ± 0.048 | 0.983 ± 0.034 | 1.04 ± 0.036 | 1 ± 0.0087 | 1.18 ± 0.034 | 1.27 ± 0.037 | 1.44 ± 0.1 | 1.29 ± 0.062
